Measured values published in US6287840A (Axys Pharmaceuticals, Inc., priority 1999, dated 2001).
Like-named read-outs stand apart in the source and are kept apart here.

Tests used:
[1] = system: chymotrypsin; assay: Selectivity versus serine proteases: chymotrypsin; type: biochemical; settings: 100 μM
[2] = Stability of selected inhibitors toward glutathione (Ellmans reagent); type: physicochemical; settings: for reaction with GSH: after 24 hours, pH=6.2, 15% DMF, 20° C.
Description: The inhibitors (5 mM) were incubated with glutathione (GSH) (0.3 mM) in phosphate buffer (50 mM) at pH=6.2 containing 15% DMF at 20° C. Periodically, 50 μL samples were added to 1 mL of buffer and treated with 10 μL of 30 mM Ellmans reagent and the absorbance measured at 412 nm.

[3] = molecular target: T1, Cathepsin B from human placenta (Homo sapiens, UniProt P07858); assay: Inhibition of cathepsin B, Z-Arg-Arg-AMC fluorescence progress curves; type: biochemical; settings: for Ki: corrected for substrate; for k/KI (kirr/KI): values without asterisk
T1 construct: Cathepsin B from human placenta, obtained from Sigma; purchased Sigma; host or cells: human placenta (tissue)
Summary of the method: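 Human placental enzyme (~10 nM) in 50 mM phosphate pH 6.2 with 2.5 mM DTT and 2.5 mM EDTA, 50 μM Z-Arg-Arg-AMC, inhibitors 30-0.001 μM, 25° C. AMC fluorescence (ex 380/em 460 nm) progress curves fitted for kobs; kobs/[I] reported, with kirr, KI and kirr/KI substrate-corrected for selected compounds.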

[4] = system: mouse malarial parasite Plasmodium vinckei; assay: In vitro protease activity of malarial parasite, substrate Z-Phe-Arg-AMC; type: biochemical; settings: read-out: P. vinckei IC50 (murine)
From the text: (§1) The following table summarizes the comparative IC50 values for selected cysteine protease inhibitors against the human malarial parasite Plasmodium falciparum and the mouse malarial parasite Plasmodium vinckei. The substrate used to measure in vitro protease activity was Z-Phe-Arg-AMC.

[5] = system: human malarial parasite Plasmodium falciparum; assay: as above; type: biochemical; settings: read-out: P. falciparum IC50 (human)
From the text: as §1

[6] = molecular target: T2, Cathepsin L from rat liver (Rattus norvegicus, UniProt P07154); assay: Inhibition of cathepsin L, Z-Phe-Arg-AMC fluorescence progress curves; type: biochemical; settings: for Ki: corrected for substrate; for k/KI (kirr/KI): values without asterisk; for k/KI (kirr/KI) / kobs /[I]* (approximate second-order inactivation constant): 25° C., pH 6.2; for kobs /[I]* (approximate second-order inactivation constant): values marked *
T2 construct: Cathepsin L from rat liver; from tissue; host or cells: rat liver
Summary of the method: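 Progress curves of AMC release (380/460 nm) over at least 3 inactivation half-times were fitted to kobs, reported as kobs/[I] or, via 1/[I] vs 1/kobs, kirr, KI (substrate-corrected) and kirr/KI.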

[7] = system: Trypanosoma brucei extracellular bloodstream forms; assay: In vitro antiprotozoal activity, Trypanosoma brucei; type: cell-based
Description: (§2) In this table, the in vitro antiprotozoal activities of the indicated compounds were measured as percentage inhibition of Leishmania donovani amastigote infecteda mouse peritoneal macrophages, Trypanosoma cruzi amastigote infected macrophages, and Trypanosoma brucei extracellular bloodstream forms.

[8] = system: T. cruzi; assay: T. cruzi infected irradiated J774 cells; type: cell-based; parameters: dose or concentration left out as unconfirmed; settings: thereafter without inhibitor; compounds listed in decreasing order of effectiveness
Description: Irradiated J774 cells were infected with T. cruzi and simultaneously treated with […] of peptidyl vinyl derivatives for 5 days; thereafter without inhibitor. The following compounds were effective in decreasing order: Mu-Phe-ArgVSPh, Boc-Tyr(I2)-HphVSPh, Mu-Phe-VaIVSPh, Boc-Tic-HphVSPh, Mu-Phe-Ser(OBzl)VSPh, Mu-Leu-HphVSPh, Mu-Tyr(I2)-HphVSPh, Mu-Phe-LysVSPh, Mu-Tic-HphVSPh.

[9] = molecular target: cruzain, from T. cruzi (Trypanosoma cruzi, UniProt P25779); assay: Inhibition of cruzain, as for cathepsin L; type: biochemical; settings: for k/KI (kirr/KI): values without asterisk; for kobs /[I]* (approximate second-order inactivation constant): values marked *
Summary of the method: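 Run as for cathepsin L with 1 nM cruzain in 50 mM phosphate pH […], 2.5 mM DTT, 2.5 mM EDTA, 5 μM Z-Phe-Arg-AMC, at 25 °C, inhibitors 30-0.001 μM; fluorescence (ex 380/em 460 nm) followed continuously. kobs fitted from progress curves and kobs/[I] reported; selected compounds gave kirr, KI, kirr/KI, with KI corrected by (1+[S]/Km).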

[10] = system: calpain; assay: Inhibition (inactivation) of calpain, Suc-Leu-Tyr-AMC; type: biochemical; settings: values marked * (or %); pH 7.5, 5 mM CaCl2, 25° C.
Description: The inhibitors were tested against calpain at 1 or 2% as for the other enzymes. The reaction conditions were 50 mM Tris, pH 7.5, 5 mM CaCl2, 2.5 mM DTT, assayed at 25° C. The substrate was 100 μM Suc-Leu-Tyr-AMC.

[11] = system: Trypanosoma cruzi amastigote infected macrophages; assay: In vitro antiprotozoal activity, Trypanosoma cruzi; type: cell-based
Description: as §2

[12] = molecular target: T3, Cloned cathepsin S (Homo sapiens, UniProt P25774); assay: Inhibition of cathepsin S, Z-Val-Val-Arg-AMC fluorescence progress curves; type: biochemical; settings: for Ki: corrected for substrate; for k/KI (kirr/KI): values without asterisk; for k/KI (kirr/KI) / kobs /[I]* (approximate second-order inactivation constant): 25° C., pH 6.5; for kobs /[I]* (approximate second-order inactivation constant): values marked *
T3 construct: made in house
Summary of the method: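 Fluorescence (380 nm excitation, 460 nm emission) was followed after adding sub-nM enzyme to pH 6.5 phosphate buffer with DTT, EDTA, Triton, 10 μM Z-VVR-AMC and 30-0.001 μM inhibitor at 25 °C. Fitted kobs values gave apparent kobs/[I]; for some, double-reciprocal plots gave kirr, KI and kirr/KI, KI corrected by 1+[S]/Km.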

[13] = system: Leishmania donovani amastigote infected mouse peritoneal macrophages; assay: In vitro antiprotozoal activity, Leishmania donovani; type: cell-based; parameters: key to percentage inhibition, L. donovani: the term "T" indicates the molecule to have displayed cytotoxicity
Description: as §2

[14] = system: U251MGn; assay: Matrigel barrier migration assay, U251MGn; type: cell-based, human; parameters: dose or concentration left out as unconfirmed
Description: (§3) Two permanent human glioma cell lines (U87MG and U251MGn) and a well characterized low passage primary culture derived from a CB-positive glioblastoma (HF66) were used to assess the migratory behavior in the Matrigel barrier migration assay in the presence of graded concentrations of four compounds.
(§4) Using the Matrigel assay, Mu-Leu-HphVSPh, Mu-Tyr-HphVSPh, Mu-Phe-HphVSPh, and Mu-Tyr(I2)-HphVSPh (all at 10 mM) inhibited U251MGn by 67, 56, 29, & 20% respectively, while the U87MG cells were inhibited 53, 75, 63, & 56% respectively. The primary culture HF66 cells were inhibited only 10% by these compounds at the same concentration.

[15] = system: U87MG; assay: Matrigel barrier migration assay, U87MG; type: cell-based, human; parameters: dose or concentration left out as unconfirmed
Description: as §3, §4

T3 sequence (P25774 115-331): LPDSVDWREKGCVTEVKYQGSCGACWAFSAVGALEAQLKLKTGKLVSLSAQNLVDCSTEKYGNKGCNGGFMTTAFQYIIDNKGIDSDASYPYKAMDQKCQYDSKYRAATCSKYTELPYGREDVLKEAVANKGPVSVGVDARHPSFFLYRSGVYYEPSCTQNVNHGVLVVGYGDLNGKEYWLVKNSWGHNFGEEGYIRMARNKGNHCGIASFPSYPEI
T2 sequence (P07154 114-288 limits assumed): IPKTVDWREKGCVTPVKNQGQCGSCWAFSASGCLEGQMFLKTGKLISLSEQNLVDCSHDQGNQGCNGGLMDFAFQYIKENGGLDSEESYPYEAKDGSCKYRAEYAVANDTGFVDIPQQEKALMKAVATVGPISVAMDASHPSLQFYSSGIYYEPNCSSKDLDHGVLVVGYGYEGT
T2 sequence (P07154 291-334 limits assumed): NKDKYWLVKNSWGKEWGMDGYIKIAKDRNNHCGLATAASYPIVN
Sequence of cruzain, from T. cruzi (P25779 123-337 limits assumed): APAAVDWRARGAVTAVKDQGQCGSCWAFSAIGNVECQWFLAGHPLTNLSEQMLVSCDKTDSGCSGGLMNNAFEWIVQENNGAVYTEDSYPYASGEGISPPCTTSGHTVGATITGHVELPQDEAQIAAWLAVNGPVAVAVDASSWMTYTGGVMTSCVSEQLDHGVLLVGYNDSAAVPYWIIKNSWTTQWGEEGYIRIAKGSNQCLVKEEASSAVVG

| Compound | kirr [3] | Ki [3] | k/KI (kirr/KI) ([3]; 25° C., pH 6.2) | IC50 ([4]; cells printed in nM) | kirr [6] | Ki [6] | k/KI (kirr/KI) [6] | effectiveness against T. cruzi in J774 cells [8] | kirr [12] | Ki [12] | k/KI (kirr/KI) [12] | kobs /[I]* (approximate second-order inactivation constant) [9] | kobs /[I]* (approximate second-order inactivation constant) [6] | also measured |
| --- | --- | --- | --- | --- | --- | --- | --- | --- | --- | --- | --- | --- | --- | --- |
| C[C@H](NC(=O)OC(C)(C)C)C(=O)N[C@H](/C=C/S(=O)(=O)c1ccccc1)Cc1ccccc1 [Boc-Ala-PheVSPh] | – | – | – | – | – | – | – | – | – | – | – | – | – | binding to chymotrypsin ([1]; 100 mM TRIS buffer at pH=7.5): did not bind; inactivation of chymotrypsin ([1]; pH=7.5, after 1 hour): nor did it inactivate |
| Br.CCOC(=O)/C=C/[C@H](CCCNC(=N)N)NC(=O)[C@H](Cc1ccccc1)NC(=O)N1CCOCC1 [Mu-Phe-ArgVEOEt.HBr, ethyl (S)-(E)-7-guanidino-4-(4-morpholinecarbonylphenylalanyl)amino-2-heptenoatehydrobromide] | 0.16 s⁻¹ | 19000 nM | 8200 M⁻¹ s⁻¹ | 200 nM | 0.18 s⁻¹ | 3100 nM | 56,900 M^-1 sec^-1 | – | – | – | – | – | – | second order rate constant for the loss of GSH ([2]; inhibitor 5 mM, GSH 0.3 mM, pH=6.2, 20° C.): 0.0053 M⁻¹ s⁻¹; times more reactive with GSH ([2]; relative to Mu-Phe-LysVSPh): 10 times; IC50 ([5]; cells printed in nM): 300 nM |
| Br.N=C(N)NCCC[C@@H](/C=C/S(=O)(=O)c1ccccc1)NC(=O)[C@H](Cc1ccccc1)NC(=O)N1CCOCC1 [Mu-Phe-ArgVSPh.HBr, (S)-(E)-3-(4-morpholinecarbonylphenylalanyl)amino-6-guanidino-1-phenylsulfonyl-1-hexene hydrobromide] | 0.15 s⁻¹ | 12000 nM | 12,300 M^-1 sec^-1 | 50 nM | 0.67 s⁻¹ | 1900 nM | 349,000 M^-1 sec^-1 | effective | 0.031 s⁻¹ | 16 nM | 2,000,000 M^-1 sec^-1 | – | – | percentage inhibition, T. brucei ([7]; 3 uM): 0%; percentage inhibition, T. brucei ([7]; 10 uM): 0%; percentage inhibition, T. brucei ([7]; 30 uM): 0%; percentage inhibition, T. brucei ([7]; 90 uM): 0%; k/KI (kirr/KI) [9]: 91,400 M^-1 sec^-1; kobs /[I]* [10]: < 50 M⁻¹ s⁻¹; percentage inhibition, T. cruzi ([11]; 3 uM): 0%; percentage inhibition, T. cruzi ([11]; 10 uM): 0%; percentage inhibition, T. cruzi ([11]; 30 uM): 0%; percentage inhibition, T. cruzi ([11]; 90 uM): 5.8%; IC50 ([5]; cells printed in nM): 50 nM; percentage inhibition, L. donovani ([13]; 3 uM): 0%; percentage inhibition, L. donovani ([13]; 10 uM): 0%; percentage inhibition, L. donovani ([13]; 30 uM): 0%; percentage inhibition, L. donovani ([13]; 90 uM): 1.3% |
| CCOP(=O)(C/C=C/[C@H](CCc1ccccc1)NC(=O)[C@H](Cc1ccccc1)NC(=O)N1CCOCC1)OCC [Mu-Phe-HphVPEt, diethyl (S)-(E)-4-(4-morpholinecarbonylphenylalanyl)amino-6-phenyl-2-hexenephosphonate] | – | – | – | – | 0.16 s⁻¹ | 39000 nM | 4100 M⁻¹ s⁻¹ | – | 0.40 s⁻¹ | 36000 nM | 11,200 M^-1 sec^-1 | – | – | reaction with GSH ([2]; inhibitor 5 mM, GSH 0.3 mM): no measurable reaction |
| CS(=O)(=O)/C=C/[C@H](CCc1ccccc1)NC(=O)[C@H](Cc1ccccc1)NC(=O)N1CCOCC1 [Mu-Phe-HphVSMe, (S)-(E)-5-(4-morpholinecarbonylphenylalanyl)amino-7-phenyl-2-thia-3-heptene 2,2-dioxide] | 0.13 s⁻¹ | 26000 nM | 5100 M⁻¹ s⁻¹ | – | – | – | – | – | 0.10 s⁻¹ | 88 nM | – | 22,000 M^-1 sec^-1 | 8700 M⁻¹ s⁻¹ | reaction with GSH ([2]; inhibitor 5 mM, GSH 0.3 mM): no measurable reaction; IC50 ([4]; cells printed in μM): 1000 nM; IC50 ([5]; cells printed in μM): 1000 nM |
| O=C(N[C@H](/C=C/S(=O)(=O)c1ccccc1)CCc1ccccc1)C(Cc1cc(I)c(O)c(I)c1)NC(=O)N1CCOCC1 (stereo partly drawn) [Mu-Tyr(I2)-HphVSPh, (S)-(E)-3-[4-morpholinecarbonyl-(3,5-diiodotyrosyl)]-amino-5-phenyl-1-phenylsulfonyl-1-pentene] | 0.18 s⁻¹ | 4700 nM | 39,200 M^-1 sec^-1 | – | – | – | – | effective | – | – | – | 114,000 M^-1 sec^-1 | 190,000 M^-1 sec^-1 | inhibition of U251MGn migration [14]: 20%; inhibition of U87MG migration [15]: 56%; kobs /[I]* (approximate second-order inactivation constant) [12]: > 7,300,000 M^-1 sec^-1 |
| (S)-(E)-3-(4-morpholinecarbonylphenylalanyl)amino-4-benzyloxy-1-phenylsulfonyl-1-butene [Mu-Phe-Ser(OBzl)VSPh] | 0.14 s⁻¹ | 47000 nM | 2900 M⁻¹ s⁻¹ | 500 nM | 0.20 s⁻¹ | 4600 nM | 42,700 M^-1 sec^-1 | effective | 0.092 s⁻¹ | 74 nM | 1,240,000 M^-1 sec^-1 | – | – | percentage inhibition, T. brucei ([7]; 1 uM): 5.2%; percentage inhibition, T. brucei ([7]; 3 uM): 11.5%; percentage inhibition, T. brucei ([7]; 10 uM): 93.3%; percentage inhibition, T. brucei ([7]; 30 uM): 1.00%; percentage inhibition, T. brucei ([7]; 90 uM): 100%; k/KI (kirr/KI) [9]: 12,800 M^-1 sec^-1; kobs /[I]* [10]: < 50 M⁻¹ s⁻¹; percentage inhibition, T. cruzi ([11]; 3 uM): 5.2%; percentage inhibition, T. cruzi ([11]; 10 uM): 15.7%; percentage inhibition, T. cruzi ([11]; 30 uM): 15.1%; percentage inhibition, T. cruzi ([11]; 90 uM): 50.7%; IC50 ([5]; cells printed in μM): 1000 nM; percentage inhibition, L. donovani ([13]; 3 uM): 100%; percentage inhibition, L. donovani ([13]; 10 uM): 100%; percentage inhibition, L. donovani ([13]; 30 uM): 100%; percentage inhibition, L. donovani ([13]; 90 uM): T |
| (S)-(E)-3-(4-morpholinecarbonyltyrosyl)amino-5-phenyl-1-phenylsulfonyl-1-pentene [Mu-Tyr-HphVSPh] | – | – | – | – | – | – | – | – | – | – | – | 297,000 M^-1 sec^-1 | 700,000 M^-1 sec^-1 | inhibition of U251MGn migration [14]: 56%; inhibition of U87MG migration [15]: 75%; kobs /[I]* (approximate second-order inactivation constant) ([3]; values marked *, 25° C., pH 6.2): 20,000 M^-1 sec^-1; kobs /[I]* (approximate second-order inactivation constant) [12]: 4,200,000 M^-1 sec^-1 |
